Measured values reported in publication PMC8467576, “Novel Ubiquitin Specific Protease-13 Inhibitors Alleviate Neurodegenerative Pathology” (Metabolites, 2021).

How the values were obtained:
human alpha-synuclein = test: Human alpha-synuclein ELISA in transfected SH-SY5Y cells; format: cell-based; settings: 5 h, at 1 mM and 100 µM
Protocol: Stably transfected human neuroblastoma SH-SY5Y cells with human wild-type alpha-synuclein were treated with 1 mM, 100 µM, 10 µM, 1 µM, 0.1 µM, 0.01 µM and 0.001 µM of each of BK50118-A, BK50118-B, BK50118-C, CL3-499, CL3-512 and CL3-514 dissolved in an equivalent volume of DMSO for 5 h. […] The other 5 compounds were also able to lower alpha-synuclein levels but with less potency (Figure 3H,I,K–M).
SH-SY5Y cells were transiently transfected for 24 h with human wild-type α-synuclein using Fugene HD transfection reagent (Promega, E2311, Madison, WI, USA) according to manufacturer’s protocol. Cells were treated with 1 mM, 0.1 mM, 0.01 mM, 1 µM, 0.1 µM, 0.01 µM and 0.001 µM of each novel compounds (BK50118-A, BK50118-B, BK50118-C, CL3-499, CL3-512 and CL3-514) dissolved in DMSO for 5 h. […] Cell viability was determined via lactate dehydrogenase assay on culture media (Thermofisher, 88954) and MTT assay on plated cells (Thermofisher, V13154). […]

[1] = test system: tyrosine hydroxylase (TH); test: Tyrosine hydroxylase staining in striatum of TgA53T mice; format: in vivo, mouse; settings: 40 mg/Kg I.P. daily for 7 days, vs DMSO
Excerpt: To ascertain the mechanistic effects of BK50118-C on alpha-synuclein clearance, we performed immunostaining in striatum of TgA53T mice. […] We also performed the staining of tyrosine hydroxylase (TH) in the striatum of TgA53T mice. TH is the enzyme responsible for catalyzing the rate limiting step in synthesis of L-3,4-dihydroxyphenylalanine(L-DOPA) which is a precursor for dopamine (DA). Staining of TH will help to evaluate the status of DA producing neurons in the SN and their terminals in the striatum.
BK50118-C is one of novel small molecule inhibitors of USP13 synthesized in our laboratory. For BK50118-C treatment, approximately 15 months old (±1 month) male and female TgA53T mice were treated with intraperitoneal injection of vehicle (DMSO) or BK50118-C at the daily dosage of 10 mg/Kg or 40 mg/Kg for 7 days. Animals were age and sex-matched in their respective treatment cohorts. All animals were sacrificed after treatment. […]
Immunohistochemistry was performed on the 20 µm thick brain sections for evaluation of ubiquitination of alpha-synuclein. […] The optic densitometry of co-localization of ubiquitin with alpha-synuclein was measured using Image J. Tyrosine hydroxylase (TH) is the limiting enzyme in DA synthesis, so probing for TH+ neurons will help to evaluate the status of DA producing neurons in the SN and their terminals in the striatum. […]

SMILES: Fc1ccc2nccc(OCc3ccccc3)c2c1 [BK50118-C, 4-benzyloxy-6-fluoroquinoline]
- alpha-synuclein levels (ELISA) (human alpha-synuclein): almost complete alpha-synuclein clearance
- tyrosine hydroxylase (TH) staining [1]: did not show any noticeable effects
